# Measured values published in patent US9089526B2, “Pharmaceutical product and analysis model for hormone replacement therapy for women and prevention of some cancers and uterine myomas” (Universidad de Chile, priority 2009, dated 2015).
# How the values were obtained:
# [1] = system: human MCF-7 mammary cancer cells; assay: In vitro growth (sulforhodamine B) assay, MCF-7 cells; assay type: cell-based; conditions: 72 h
# Experimental: (§1) Cell lines. The experimental cell cultures were obtained from American Type Culture Collection (Rockville, Md., USA). MCF-7 and MDA-MB231 cells (estrogen receptor positive and negative respectively breast cancer cells) were grown in Dulbecco's modified Eagle's medium (DMEM) containing 10% FCS, 100 U/ml penicillin, 100 μg/ml streptomycin and 1 mM glutamine. Cells were seeded into 96 well microtiter plates in 100 μl at plating density of 3×10^3 cells/well. After 24 h incubation at 37° C. under a humidified 5% carbon dioxide to allow cell attachment, the cells were washed with phenol red-free and the medium was changed to phenol red-free DMEM supplemented with 4% dextran-charcoal-stripped foetal calf serum (DCFCS). Then the cells were treated with different concentrations of drugs and incubated for 72 h under the same conditions. Stock solution of compounds was prepared in ethanol and the final concentration of this solvent was kept constant at 1%. Control cultures received 1% ethanol alone.
# (§2) In vitro growth inhibition assay. The sulforhodamine B assay was used according to the method of Skehan et al. 1990 (48) with some modifications (49). […] Protein-bound stain was solubilized with 100 μl of 10 mM unbuffered Tris base, and the cell density was determined using a […] (wavelength 540 nm). […]
# [2] = system: human MDAMB-231 mammary cancer cells; assay: In vitro growth (sulforhodamine B) assay, MDAMB-231 cells; assay type: cell-based; conditions: 72 h
# Experimental: as §1, §2
# rat uterus [3] = assay: Modification of estradiol-induced uterine responses in prepubertal female rats, substance given 1 h before estradiol-17β; assay type: in vivo; conditions: for Estrogen-induced endometrial edema: pretreatment 1 h before estradiol 0.33 mg/kg s.c.
# Experimental: (§3) Prepubertal female rats were treated s.c. with the vehicle (C) (0.3 mL 1:9 ethanol saline), or a phytoestrogenic preparation, followed after one hour by estradiol-17β (E) Merck (0.33 mg/kg b.wt.), or its vehicle. Among the phytoestrogenic compounds used, genistein (G) Sigma (0.5 mg/kg b.wt.), two different concentrations of soybean ethanol extracts (S): 0.06 (Sd) and 0.364 (Sc) mg genistin/kg b.wt., and extracts, decoctions or extract sub-fractions of various plant species. Genistein quantification was based in the indirect valoration of genistein following 2M HCl hydrolysis and genistein quantification by HPLC (45, 46). […] Uteri were excised under ether anesthesia and histologically processed for eosinophil quantification and morphometric analysis of different parameters of estrogen action (22, 34). The following parameters were quantified in the uterus: total uterine eosinophilia (6), percentage of eosinophils according to the distribution in different uterine histological layers and to their degree of degranulation (10, 14); deep endometrial and superficial endometrial edema (47); luminal epithelial, glandular epithelial (34) and myometrial (47) cell hypertrophy, luminal epithelial RNA content (34), and number of mitotic figures for each uterine cell-type.
# (§4) Statistics: According to previous studies (14) using the Tukey test of additivity (50), data on some parameters of estrogen stimulation needs to be submitted to logarithmic transformation or to square or cubic root transformation to normalize distribution. Accordingly, the transformations were performed on some of the parameters of estrogen stimulation investigated (14). Transformed and non-transformed data were subjected to further statistical analysis.
# (§5) Since multiple comparisons were performed between the different experimental conditions, transformed and non-transformed data (all parameters except eosinophil degranulation and eosinophil distribution between uterine tissue layers) were subjected to the least significant difference a posteriori (LSD) test. The common variance needed for this test was estimated from a one-way unbalanced analysis of variance (ANOVA).
# (§6) In uterine eosinophil degranulation and distribution studies, the χ^2 statistic was used to evaluate differences between the proportions.
# rat uterus [4] = assay: Estrogenic (agonist) responses in the uterus of prepubertal female rats, substance alone; assay type: in vivo; conditions: s.c.
# Experimental: as §3, §4, §5, §6
# [5] = substance alone, absence of estradiol
# [6] = pretreatment 1 h before estradiol, compared to estradiol alone
# [7] = pretreatment 1 h before estradiol, mitoses
smiles,measurement,setting,value
"O=c1c(-c2ccc(O)cc2)coc2cc(O)cc(O)c12 [G, genistein]",Cell proliferation of cultured MCF-7 cells,[1]; [5],increased
same,Cell proliferation of cultured MCF-7 cells,[1]; substance plus estradiol,cell proliferation induced by genistein plus estradiol is higher than that of estradiol alone
same,Cell proliferation of cultured MDAMB-231 cells,[2]; [5],slightly inhibited
same,Cell proliferation of cultured MDAMB-231 cells,[2]; substance plus estradiol,in association with estradiol the inhibitory effect is stronger than that of genistein alone
same,Estrogen-induced endometrial edema,rat uterus [3]; 6 h of treatment,antagonizes
same,Estrogen-induced endometrial edema,rat uterus [3]; 24 h of treatment,not at 24 h
same,Estrogen-induced uterine eosinophilia,"rat uterus [3]; pretreatment 1 h before estradiol, 6 and 24 h considered together",mainly at 6 h of treatment
same,Estrogen-induced eosinophilia in the endometrial layer only,"rat uterus [3]; pretreatment 1 h before estradiol, 6 or 24 h",decrease in eosinophils under estrogen treatment is stronger
same,Degranulation of uterine eosinophils in estrogen-treated rats,rat uterus [3]; [6],decreases the degranulation
same,Proportion of uterine eosinophils by location (endometrium/myometrium vs mesometrium) in estrogen-treated rats,rat uterus [3]; [6],decrease in the proportion of eosinophils located in endometrium with myometrium
same,Estrogen-induced cell proliferation in endometrial stroma,rat uterus [3]; [7],almost completely block
same,Estrogen-induced cell proliferation in myometrium,rat uterus [3]; [7],almost completely block
same,Estrogen-induced cell proliferation in uterine luminal epithelium,rat uterus [3]; [7],almost completely block
same,Edema in deep endometrial stroma,rat uterus [4]; 6 h (FIG. 4),not by G or S
same,Proportion of uterine eosinophils located in the mesometrium and in the endometrium with myometrium,rat uterus [4]; 6 h (FIG. 6),all the eosinophils were in the mesometrium
same,Endometrial luminal epithelial cell hypertrophy,rat uterus [4]; 24 h (FIG. 2),response similar to E
same,Endometrial luminal epithelial cell RNA content,rat uterus [4]; 24 h (FIG. 3),response similar to E
same,Cell proliferation (number of mitotic figures) in myometrium,rat uterus [4]; 24 h (FIG. 11),"not by G, Sd or Sc"
same,Myometrial hypertrophy,rat uterus [4]; uteri excised 24 h after treatment (FIG. 1),response similar to E
